Test: PK study in human volunteers (phase I)
Assay type: in vivo
Conditions: 12 human volunteers; calculated for 1200 mg oral dose from AUC0-24/mg at 800 mg or 1600 mg daily
Description: An oral single dose PK experiment in mice following administration of 200 mg/kg fluasterone was performed. The calculated AUC0-24 was 2,242 (ngXh/mL). A PK study was also performed in 12 human volunteers as part of a phase I fluasterone study. The volunteers received either 800 mg or 1600 mg fluasterone orally as a daily dose. The AUC0-24/mg dose was calculated.

With `C[C@]12CCCCC1=CC[C@@H]1[C@@H]2CC[C@]2(C)C(=O)[C@H](F)C[C@@H]12` [Fluasterone, 16α-fluoro-5-androsten-17-one] the AUC0-24 was 2,316 ngXh/mL.

Source: patent US9408856B2, “Topical steroidal formulations” (Temple University—Of The Commonwealth System of Higher …, priority 2008, dated 2016)
